Assays:
[1] = In vitro maximal effect on [3H]-MK 801 binding to NMDA receptor as compared to a basal value of 100%
[2] = target: T1, Glutamate receptor ionotropic, NMDA 1 (Rattus norvegicus, UniProt P35439); test: In vitro inhibitory activity to inhibit [3H]glycine binding to NMDA receptor
Glutamate NMDA receptor = test: In vitro concentration eliciting half-maximal effect on [3H]-MK 801 radioligand binding to NMDA receptor; assay type: protein-complex assay
[3] = target: T1, Glutamate receptor ionotropic, NMDA 1; test: In vitro inhibitory activity to inhibit [3H]glycine binding to NMDA receptor; IA means inactive

| ME [1] [%] | IC50 [3] | Structure (SMILES) | also measured |
| --- | --- | --- | --- |
| 169 | – | N[C@H](CO)C(=O)O | – |
| 18 | – | C[C@@H]1CN(O)C(=O)[C@@H]1N | IC50 [2]: 1.87 µM; EC50 (Glutamate NMDA receptor): 9.5 µM |
| – | Not Active | CC1ONC(=O)C1N (stereo not drawn) | – |
| – | Not Active | NC1CCONC1=O (stereo not drawn) | – |
| 159 | – | NCC(=O)O | – |
| – | Not Active | O=C1CNCN1 | – |
| – | Not Active | NC1CS(=O)(=O)NC1=O (stereo not drawn) | – |
| – | Not Active | CC1NC(C)N(O)C1=O (stereo not drawn) | – |
| 146 | – | O=C1CNCN1O | EC50 (Glutamate NMDA receptor): 4.33 µM |
| – | Not Active | O=C1CCCN1O | – |
| – | – | O=C1C(CO)NCN1O (stereo not drawn) | IC50 [2]: 78 µM |
| 122 | – | N[C@@H]1CONC1=O | – |
| – | – | CC1NCC(=O)N1O (stereo not drawn) | IC50 [2]: 83 µM |
| – | – | CC1NCN(O)C1=O (stereo not drawn) | IC50 [2]: 78 µM |
| – | Not Active | O=C1CCNCN1O | – |

Reference: ChEMBL document CHEMBL1132124 (Bioorg Med Chem Lett, 1999)
